# Measured values from patent US7214663B2, “Tripeptide prodrug compounds” (Medarex, Inc., priority 2001, dated 2007).
# Experiments:
# [1] = Metabolism and clearance of Suc-Leu-Ala-Leu-Dox in mice (plasma, urine); type: in vivo, mouse
# Method: Plasma samples of 100 μl were transferred to microcentrifuge tubes (1.5 mL) and an internal standard of daunorubicin (20 μL at 0.5 mg/ml) was added together with acetonitrile (400 μl). The tubes were capped and briefly vortexed followed by centrifugation at 14,000 rpm. 420 μl from each tube was removed and dried in vacuo. Each sample was reconstituted in 65 μl 20 mM aqueous ammonium formate (AF) pH 4.5 buffer containing acetonitrile (20%) prior to analysis by reverse phase liquid chromatography in combination with tandem mass spectrometry (LC MS/MS).
# Urine was collected at 2 and 24 hours post administration from pairs of mice in metabolic cages. Urine samples were diluted with AF buffer containing acetonitrile (20%) to give a target analyte concentration within the practical range of the LC MS/MS assay. 30 μl of each diluted sample was placed in a micro centrifuge tube (1.5 ml) and an internal standard of daunorubicin (20 μL at 0.5 mg/ml) was added together with 50 μl of AF buffer containing acetonitrile (20%). Each sample was then analyzed by LC MS/MS.
# An Agilent HP1100 HPLC with DAD detector and Chemstation software was coupled to a PE Sciex API 365 mass spectrometer with an electrospray ion source. HPLC was performed on a TSK-Gel Super ODS, […], 4.6×50 mm (TosoHaas) reversed phase column equipped with a […] C18 guard disc (Higgins Analytical) and stainless steel frit (Upchurch Scientific). Chromatography was performed at room temperature. The flow rate was 0.5 ml/min. Injection volume was 50 μl. Gradient elution was performed using a mobile phase of AF buffer with increasing amounts of acetonitrile. The API 365 was operated at 365° C. in a multiple reaction monitoring mode, set to monitor specific analyte parent-daughter ion pairs. Integration of chromatograms was performed by MacQuan software (PE Sciex) and quantitation of each analyte obtained by comparison to previously obtained calibration curves. Daunorubicin was used as an internal standard in all cases.
# in vivo [2] = conditions: female, ICR, mouse, iv
# Method: Plasma was obtained from three individual animals in each group at 5 minutes, 1, 2, 4, or 6 hr.
# Namalwa cells (CD10pos) = assay: cells; type: cell-based, human; conditions: 24 hours, 3H-thymidine
# Method: (§1) In addition to LNCaP, a number of B-cell lines, such as Ramos and Namalwa cells express CD10 (CD10^pos cells).
# (§2) Suspension cells, BALL-1, Ramos and Namalwa cells were cultured in RPMI media containing 10% heat inactivated fetal calf serum (FCS). On the day of the study, the cells were collected, washed and resuspended at a concentration of 0.5×10^6 cells/ml in RPMI containing 10% FCS. 100 μl of cell suspension was added to 96 well plates. […] Finally 10 μl of a 100 μCi/ml ^3H-thymidine was added per well and the plates were incubated for 24 hours. The plates were harvested using a 96 well Harvester (Packard Instruments) and counted on a Packard Top Count counter. Four parameter logistic curves were fitted to the ^3H-thymidine incorporation as a function of drug molarity using Prism software to determine IC50 values.
# tumor-bearing nude mice = assay: Repeat-dose tolerability / repeat dose MTD in tumor bearing mice; type: in vivo, mouse; conditions: Table 11, five doses at five day or 1 week intervals
# Excerpt: (§3) In one study, one animal in each dose group (n=8) was terminated as a possible drug-related toxicity death late in the study, at Days 58 and 57 in the low and high dose-groups respectively. The safety of the compound was evidenced by little body weight loss in either the high or low dose groups (less than 5% of the initial weight) during the 60-day observation period, in surviving animals (FIG. 14). In the other study, both the high and low dose were well tolerated. Only one animal in the high dose group (n=10) had over 15% of body weight loss at the end of the study (Day 61).
# (§4) In repeat-dose studies in tumor bearing mice, groups of ten mice were dosed with various amounts of prodrug for a total of five doses at either five day or 1 week intervals. […] Thus, the prodrugs permit a much greater amount of therapeutic agent to be delivered to the body as a whole and thus to the vicinity of the target cell.
# in vivo [3] = conditions: female, mouse, iv
# [4] = Metabolism and clearance of Suc-Met-Ala-Leu-Dox in mice (plasma, urine); type: in vivo, mouse
# Method: Plasma samples were obtained at 1 or 4 hours, and urine was collected at 2 and 24 hours post administration. Levels of the prodrug and metabolites were measured by LC-MS with UV detection of doxorubicin.
# [5] = SD-MTD studies, 60 days, normal mice (Example 14); conditions: mouse, in vivo; for MTD: Table 12, re-analyzed data and new data
# Method: In the single dose Maximum Tolerated Dose (SD-MTD) studies, groups of normal mice were administered intravenous bolus doses of the prodrug. The mice were observed daily for 60 days and body weights measured twice weekly. The SD-MTD was estimated to be equal to the highest dose that produced no death in mice after 60 days.
# [6] = tested on: human colon carcinoma (LS174T); assay: LS174T xenograft efficacy study; conditions: doxorubicin-insensitive model
# Method: Healthy young female nude mice were subcutaneously implanted with chunks of LS174T. […] Tumor size and body weights were measured twice weekly for up to 60 days.
# [7] = tested on: human colon carcinoma (HT-29); assay: HT-29 xenograft efficacy study
# Excerpt: Healthy young male nude mice were subcutaneously injected with 5 million of HT-29 cells.
# [8] = Repeat-dose tolerability / repeat dose MTD in tumor bearing mice; type: in vivo, mouse; conditions: mouse, in vivo, Table 12, re-analyzed
# Excerpt: as §3, §4
# normal ICR mice = assay: Single dose Maximum Tolerated Dose (SD-MTD) study, 49 days, ICR mice (Examples 5 and 6)
# Method: (§5) In a second single dose Maximum Tolerated Dose (SD-MTD) study, groups of five normal ICR mice were administered intravenous bolus doses of Suc-Leu-Ala-Leu-Dox. The mice were observed daily for 49 days and body weights measured twice weekly.
# (§6) In a second single dose Maximum Tolerated Dose (SD-MTD) study, groups of five normal ICR mice were administered intravenous bolus doses of Suc-Leu-Ala-Gly-Dox. The mice were observed daily for 49 days and body weights measured twice weekly.
# [9] = as above; conditions: mouse, in vivo, iv, SD-MTD (mg/kg), intravenous bolus, ICR mice, Day 49
# Method: as §5, §6
# BALL-1 cells (CD10neg) = type: cell-based, human; conditions: Ball-1 (CD10neg), 24 hours, 3H-thymidine
# Method: as §1, §2
# Ramos cells (CD10pos) = type: cell-based, human; conditions: 24 hours, 3H-thymidine
# Method: as §1, §2
# [10] = tested on: HT-29 (colon carcinoma) cells; conditions: HT29, 48 hours, 3H-thymidine incorporation
# Method: (§7) Adherent cells, LNCaP (prostate carcinoma), HT-29 (colon carcinoma) and PC-3 (prostate carcinoma), were cultured in DMEM media containing 10% heat inactivated fetal calf serum (FCS). On the day of the study the cells were detached from the plate with a trypsin solution. The collected cells were washed and resuspended at a concentration of 0.25×10^6 cells/ml in DMEM containing 10% FCS. 100 μl of cell suspension were added to 96 well plates and the plates were incubated for 3 hours to allow the cells to adhere. […] The plates were then incubated for 24 hours, pulsed with 10 μl of a 100 μCi/ml ^3H-thymidine and incubated for an additional 24 hours (total incubation time 48 hours). The plates were harvested using a 96 well Harvester (Packard Instruments) and counted on a Packard Top Count Counter. Four parameter logistic curves were fitted to the ^3H-thymidine incorporation as a function of drug molarity using Prism software to determine IC50 values.
# (§8) Prostate carcinoma cells, LNCaP and PC-3 cells or colon carcinoma cells HT-29, were incubated with increasing concentration of the indicated compounds for 48 hours and cellular proliferation was measured using the ^3H-thymidine assay.
# [11] = tested on: PC-3 (prostate carcinoma) cells; conditions: PC-3, 48 hours, 3H-thymidine incorporation
# Method: as §7, §8
# [12] = tested on: LNCaP (prostate carcinoma) cells; conditions: 48 hours, 3H-thymidine incorporation
# Method: as §7, §8
# [13] = after single intravenous 117 mg/kg Suc-Leu-Ala-Leu-Dox
# [14] = after single intravenous 120 mg/kg Suc-Met-Ala-Leu-Dox
# [15] = 4.0 mg/kg every 7 days for 5 doses
structure (smiles),measurement,setting,value
"COc1cccc2c1C(=O)c1c(O)c3c(c(O)c1C2=O)C[C@@](O)(C(=O)CO)C[C@@H]3O[C@H]1C[C@H](N)[C@H](O)[C@H](C)O1 [Doxorubicin, reference compound]","Urine 2 hr, percent of administered dose",[1]; [13],0.05%
same,"Urine 24 hr, percent of administered dose",[1]; [13],0.15%
same,"Plasma 1 hr, percent of administered dose","[1]; female, mouse, in vivo, iv, 117 mg/kg, 1 h",0.002%
same,"Plasma 4 hr, percent of administered dose","[1]; female, mouse, in vivo, iv, 117 mg/kg, 4 h",0.000%
same,AUC,in vivo [2],3.3 µM·h
same,IC50,Namalwa cells (CD10pos); Homo sapiens,0.01 µM
same,"Optimal Efficacy Repeat Dose (mg/kg), value in parentheses (doxorubicin equivalent dose)",tumor-bearing nude mice,4 (4) mg/kg
same,Optimal Efficacy Repeat Dose (mg/kg),"tumor-bearing nude mice; tumor bearing mice, 60 days",4 (4) mg/kg
same,MTD at 28 days,in vivo [3],4 to 8 mg/kg
same,"Urine 2 hr, percent of administered dose",[4]; [14],0.30%
same,"Urine 24 hr, percent of administered dose",[4]; [14],0.61%
same,"Plasma 1 hr, percent of administered dose","[4]; female, mouse, in vivo, iv, 120 mg/kg, 1 h",0.002%
same,"Plasma 4 hr, percent of administered dose","[4]; female, mouse, in vivo, iv, 120 mg/kg, 4 h",0.002%
same,MTD at 60 days,"[5]; Table 11, doses as first stated, intravenous bolus, 60 days",4 mg/kg
same,anti-tumor activity in LS174T xenograft,[6],virtually inactive
same,Calculated Mean Day of Survival,[7]; [15],30.0 ± 3.7 days
same,Extension of Mean Day of Survival over controls,[7]; [15],16.7%
same,Number of Long Term Survivors,[7]; [15],0/10
same,Calculated Mean Day of Survival,"[7]; 4.0 mg/kg every 7 days for 5 doses, listed as doxorubicin",30 days
COc1cccc2c1C(=O)c1c(O)c3c(c(O)c1C2=O)C[C@@](O)(C(=O)CO)C[C@@H]3O[C@H]1C[C@H](NC(=O)CNC(=O)[C@H](C)NC(=O)[C@H](CC(C)C)NC(=O)CCC(=O)O)[C@H](O)[C@H](C)O1 [Suc-Leu-Ala-Gly-Dox],AUC,in vivo [2]; 100 umol/kg,310 µM·h
same,IC50,Namalwa cells (CD10pos),17.3 µM
same,MTD,"[8]; Repeat Dose MTD (mg/kg), value in parentheses: doxorubicin equivalent dose, Q 5 D × 5 or Q 7 D × 5",> 70 mg/kg
same,MTD,"[8]; Q 5 D × 5 or Q 7 D × 5 as given per compound, read-out: Repeat Dose MTD",> 110 mg/kg
same,"acute toxicity, within 24 hours",normal ICR mice; any dose level,no acute toxicity
same,"mortalities, morbidity or significant body weight loss over the 49 day study",normal ICR mice; any dose level up to 220 mg/kg,"no mortalities, morbidity or significant body weight loss"
same,SD-MTD Molar Ratio (Dox =),normal ICR mice; molar basis versus doxorubicin alone,8.8
same,MTD,[9],≥ 220 mg/kg
same,IC50,BALL-1 cells (CD10neg),23.3 µM
same,IC50,Ramos cells (CD10pos),22.7 µM
same,MTD,"[5]; SD MTD (mg/kg), value in parentheses: doxorubicin equivalent dose",> 141 mg/kg
same,MTD,[5]; read-out: SD MTD,> 220 mg/kg
same,IC50,[10],32 µM
same,IC50,[11],39 µM
same,IC50,[12],15 µM
same,Toxicity (Weight Loss > 20%),[7]; 40 mg/kg every 7 days for 5 doses,0/7
same,Toxicity (Weight Loss > 20%),[7]; 67 mg/kg every 7 days for 5 doses,0/7
